Source: US11021541B2, “Method of inhibiting the gonadotropin-releasing hormone (GnRH) receptor by administering a GHR-106 monoclonal antibody” (Vancouver Biotech Ltd., priority 2018, dated 2021)
Where two headings read alike, the source gives them in different places. Where a SMILES comes first, the peptide text is derived from it. [ ]: non-standard residue; d: D form. dPhe(4-Cl) = N[C@H](Cc1ccc(Cl)cc1)C(=O)O; d2Nal = N[C@H](Cc1ccc2ccccc2c1)C(=O)O; dCit = NC(=O)NCCC[C@@H](N)C(=O)O; d3Pal = N[C@H](Cc1cccnc1)C(=O)O

What was measured:
[1] = cited from earlier work; for Estimated Half Life: estimated circulation half-life
[2] = test system: GnRH receptors expressed on the surface of cultured cancer cells (OC-3-VGH); experiment: Competitive binding assay on microwells coated with OC-3-VGH cancer cells; parameters: species or system human; details: for competition with mGHR106 binding to OC-3-VGH coated microwells: FIG. 1A, mGHR106 0.50 or 0.25 μg/ml; for competition with hGHR106 binding to OC-3-VGH coated microwells: FIG. 1B, peptides each at 1 μg/mL
Experimental: Competitive binding assays were carried out according to accepted protocols, e.g. as described in U.S. Pat. No. 8,361,793. […] The N1-29 oligopeptides are derived from the N-terminal extracellular domains of GnRH receptors from each species. The amino acid sequence of each of Hu-P, Mo-P and Mu-P are shown as SEQ ID NO:1, SEQ ID NO:2 and SEQ ID NO:3 respectively in FIG. 3.
The white bars and black bars in FIG. 1A represent the different concentrations of mGHR106 (0.50 μg/ml and 0.25 μg/ml, respectively) used in each assay. […] Goat anti-human IgG-ALP (alkaline phosphatase labeled) was used as the probe, with error bars for duplicate assays indicated.

[3] = test system: OC-3-VGH cancer cells; experiment: Comparative gene regulation study in cancer cells; assay type: cell-based, human; details: FIG. 4; upon ligand treatment of cancer cells
Description: Comparative gene regulation upon administration of hGHR106 or the decapeptide GnRH analog antide was examined using conventional protocols, e.g. as described in U.S. Pat. No. 8,361,793. […] Expressions of a number of selected genes involved in the proliferation or survival of cancer cells were compared. The selected genes include: GnRH, GnRHR, P0, P1, P2, L37, and EGF, c-fos, P21 and cyclin D1. P0, P1, P2, and L37 are ribosomal proteins.

[4] = test system: OC-3-VGH, PC-3, A549 and MDA-MB-435 cancer cells; experiment: TUNEL apoptosis assay of cultured and treated cancer cells; assay type: cell-based; details: co-incubation 24 to 72 hours, compared on a molar basis, FIGS. 2A and 2B
Experimental: In order to compare the anti-proliferative effects (or apoptosis) between mGHR106 or hGHR106 and antide on cancer cells, In Situ Cell Death Detection Kit, POD (Roche, Canada) was employed for detection and quantitation of apoptosis of cultured and treated cancer cells in vitro. Briefly cancer cells were cultured in RPMI-1640 medium at 37° C. in a CO2 (5%) incubator for 24 and/or 48 hours until all cancer cells are attached to microwells. Following removal of cell culture medium, fresh serum-free medium was added for an additional 3 hours incubation in a CO2 incubator.
After the serum-free starvation period, the cells were incubated in fresh medium containing 10% fetal calf serum, and hGHR106, mGHR106 or antide of known concentration was added for co-incubation of 24 to 72 hours. As the negative control, normal mouse IgG or normal human IgG of the same concentration was used for the same incubation period.
At the end of incubation, the attached cells were removed from tissue culture wells by appropriate cell detachment solution. Apoptosis of treated cancer cells was quantitatively determined by TUNEL assay with the instructions provided by Cell Death Detection Kit, POD (Roche, Canada). Percent increases of cells with apoptosis after treatments with any one of hGHR106, mGHR106 and antide were obtained by subtracting spontaneous apoptosis from the negative control. […]

[5] = clinically used antibodies and GnRH decapeptide analogs

Row | Molecule | Estimated Half Life [1, 5] [h] | competition with mGHR106 binding to OC-3-VGH coated microwells [2] | competition with hGHR106 binding to OC-3-VGH coated microwells [2] | further results
1 | CC(=O)N[C@H](Cc1ccc2ccccc2c1)C(=O)N[C@H](Cc1ccc(Cl)cc1)C(=O)N[C@H](Cc1cccnc1)C(=O)N[C@@H](CO)C(=O)N[C@@H](Cc1ccc(O)cc1)C(=O)N[C@H](CCCNC(N)=O)C(=O)N[C@@H](CC(C)C)C(=O)N[C@@H](CCCNC(=N)N)C(=O)N1CCC[C@H]1C(=O)N[C@H](C)C(N)=O [Cetrorelix] (Ac-[d2Nal][dPhe(4-Cl)][d3Pal]SY[dCit]LRP[dA]-NH2) | 10 to 63 |  |  | 
2 | Beracizumab | 480 |  |  | 
3 | Gonadotropin-releasing hormone [Native GnRH] |  |  |  | Estimated Half Life ([1]; native GnRH): 0.033 to 0.067 h; half-life in human circulation ([1]; human circulation): 2 to 4 min
4 | Hu-P: N1-29 oligopeptide of N-terminal extracellular domain of human GnRH receptor, SEQ ID NO:1 (MANNASLEQDPNHCSAINNSIPLIQGKLPT; listed as Mus musculus) |  | compete | compete | 
5 | Luprorelin | 3 |  |  | 
6 | Mo-P: N1-29 oligopeptide of N-terminal extracellular domain of monkey GnRH receptor, SEQ ID NO:2 (MANSALPEQNQNHCSVINNSIPLMQGNLPT; Pan troglodytes) |  | compete | compete | 
7 | Mu-P: N1-29 oligopeptide of N-terminal extracellular domain of mouse GnRH receptor, SEQ ID NO:3 (MANSASPEQNQNHCSAINNSIPLMQGNLPT; listed as Homo sapiens) |  | not | not | 
8 | Panitumumab | 180 |  |  | 
9 | antide |  |  |  | Cyclin D1 expression [3]: downregulated; EGF expression [3]: downregulated; GnRH expression (up-regulation) [3]: 50%; expression of the GnRH receptor (GnRHR) [3]: unchanged; induced apoptosis (percent increase of cells with apoptosis) [4]: very similar degrees of induced apoptosis
